Reference: patent publication US20220370545A1, “INTEGRIN RECEPTOR ALPHA V BETA 3 AND ITS LIGAND INVOLVED IN CHRONIC ITCH” (North Carolina State University, priority 2019, published 2022)

B1: periostin: fasciclin extracellular matrix protein, endogenous ligand of integrin αvβ3; mouse recombinant used (protein)
chain: NSYYDKVLAHSRIRGRDQGPNVCALQQILGTKKKYFSSCKNWYQGAICGKKTTVLYECCPGYMRMEGMKGCPAVMPIDHVYGTLGIVGATTTQHYSDVSKLREEIEGKGSYTYFAPSNEAWENLDSDIRRGLENNVNVELLNALHSHMVNKRMLTKDLKHGMVIPSMYNNLGLFINHYPNGVVTVNCARVIHGNQIATNGVVHVIDRVLTQIGTSIQDFLEAEDDLSSFRAAAITSDLLESLGRDGHFTLFAPTNEAFEKLPRGVLERIMGDKVASEALMKYHILNTLQCSEAITGGAVFETMEGNTIEIGCEGDSISINGIKMVNKKDIVTKNGVIHLIDEVLIPDSAKQVIELAGKQQTTFTDLVAQLGLASSLKPDGEYTLLAPVNNAFSDDTLSMDQRLLKLILQNHILKVKVGLSDLYNGQILETIGGKQLRVFVYRTAICIENSCMVRGSKQGRNGAIHIFREIIQPAEKSLHDKLRQDKRFSIFLSLLEAADLKDLLTQPGDWTLFAPTNDAFKGMTSEERELLIGDKNALQNIILYHLTPGVYIGKGFEPGVTNILKTTQGSKIYLKGVNETLLVNELKSKESDIMTTNGVIHVVDKLLYPADIPVGNDQLLELLNKLIKYIQIKFVRGSTFKEIPMTVYRPAMTKIQIEGDPDFRLIKEGETVTEVIHGEPVIKKYTKIIDGVPVEITEKQTREERIITGPEIKYTRISTGGGETGETLQKFLQKEVSKVTKFIEGGDGHLFEDEEIKRLLQGDTPAKKIPANKRVQGPRRRSREGRSQ

What was measured:
[1] = target: T1, TRPV1 receptor (Mus musculus, UniProt Q704Y3); experiment: Capsaicin-induced calcium response in DRG neurons (specificity control); assay type: cell-based; settings: perfusion with 100 nM cilengitide
T1 construct: endogenous in cells; host or cells: primary mouse dorsal root ganglion neurons
T1 sequence (Q704Y3 whole entry, the tested form may be a part): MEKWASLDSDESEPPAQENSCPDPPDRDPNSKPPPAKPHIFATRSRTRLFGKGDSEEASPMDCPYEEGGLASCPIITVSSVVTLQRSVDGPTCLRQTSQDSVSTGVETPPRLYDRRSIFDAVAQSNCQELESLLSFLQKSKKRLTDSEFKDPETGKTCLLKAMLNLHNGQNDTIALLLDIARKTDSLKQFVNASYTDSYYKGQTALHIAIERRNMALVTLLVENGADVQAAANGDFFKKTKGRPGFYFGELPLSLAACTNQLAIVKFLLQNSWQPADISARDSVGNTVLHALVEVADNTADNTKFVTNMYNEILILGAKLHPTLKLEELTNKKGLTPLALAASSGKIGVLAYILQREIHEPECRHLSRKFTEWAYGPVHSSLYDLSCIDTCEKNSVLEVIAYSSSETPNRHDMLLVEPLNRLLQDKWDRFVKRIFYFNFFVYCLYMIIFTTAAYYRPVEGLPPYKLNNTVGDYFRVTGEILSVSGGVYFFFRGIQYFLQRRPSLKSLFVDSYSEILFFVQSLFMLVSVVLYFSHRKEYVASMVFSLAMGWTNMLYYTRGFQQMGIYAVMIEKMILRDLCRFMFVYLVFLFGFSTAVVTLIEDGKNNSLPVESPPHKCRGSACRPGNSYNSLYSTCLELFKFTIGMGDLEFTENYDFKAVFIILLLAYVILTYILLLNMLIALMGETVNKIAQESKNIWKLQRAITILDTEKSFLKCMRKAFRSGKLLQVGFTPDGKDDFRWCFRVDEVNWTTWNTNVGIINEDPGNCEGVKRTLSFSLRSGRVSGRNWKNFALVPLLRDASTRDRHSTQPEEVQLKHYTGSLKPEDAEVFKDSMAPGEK
Method: Before imaging, cells were incubated in 350 μL of complete media containing 1 μM Fura-2 AM (Enzo Life Sciences, Farmingdale, New York, United States of America) for 30 min at 37° C. with 5% CO2. During imaging, the cells were perfused with a buffer containing the following: 135 mM sodium chloride, 3.2 mM potassium chloride, 2.5 mM magnesium chloride, 2.8 mM calcium chloride, 667 μM monobasic sodium phosphate, 14.2 mM sodium bicarbonate, and 10.9 mM D-glucose (all from VWR International, Radnor, Pennsylvania, United States of America) with a pH between 7.00 and 7.40. The buffer and the holding plate were kept at 37° C. while imaging. Imaging data was collected on a TE200 inverted microscope using NIS Elements software (Nikon, Melville, New York, United States of America). Cells were exposed to 340 nm and 380 nm wavelengths for 100 ms and the A340/A380 ratio was calculated. Traces were analyzed using Excel and responses greater than 10% of the baseline were counted. Each data point in the scatter plots represented one coverslip.
Calcium Imaging: Calcium imaging will be performed on the DRG neurons as previously described (Pitake et al., 2018). Briefly, DRG neurons will be incubated for longer than 30 min in DMEM containing 1 μM of a fluorescent indicator Fura-2 AM (Enzo Life Sciences, Inc., Farmingdale, N.Y., United States of America). The neurons will be perfused in a standard bath solution containing 140 mM NaCl, 5 mM KCl, 2 mM MgCl2, 2 mM CaCl2, 10 mM Hepes and 10 mM D-glucose at pH 7.4 adjusted with NaOH. A calcium-free bath solution will be prepared by omitting 2 mM CaCl2 from the standard bath solution […] adding 5 mM EGTA. Fura-2 fluorescence excited at 340 and 380 nm and emission will be monitored at 510 nm with a digital CCD camera (Andor Clara DR-4152, Andor Technology Ltd, Belfast, United Kingdom). Data will be obtained by every 100 ms using an imaging software (NIS-Elements AR 4.13.04, Nikon Corporation, Tokyo, Japan) and analyzed by Microsoft Excel (Microsoft Corporation, Redmond, Wash., United States of America). Values of calcium responses will be normalized by dividing measured values (F) with average values of initial 5 frames (F0) of each cell and described as F/F0. In this study, changes in each response to an application with F/F0>0.1 will be regarded as positive. Cells not responding to 100 mM KCl, which is applied at the end of each experiment, will be regarded as non-neuronal cells and excluded from analysis.
Additional inhibitors were studied using the calcium imaging method described in Example 3. Briefly, the Fura2-AM calcium imaging method was performed on live dorsal root ganglia (DRG) neurons (ex vivo). The DRG neurons are pre-incubated with the inhibitors P11 (Catalog #4744, Tocris Bioscience, Bristol, United Kingdom) and LM609 (Catalog #MAB1876, Millipore Sigma, Burlington, Mass., United States of America) or vehicle for 10 minutes and further stimulated with periostin or capsaicin in the presence of inhibitors. For Echistatin (Catalog #3202/100U, R&D Biosystems, Minneapolis, Minn., United States of America), MK-0429, and SB273005 (Catalog #S75-40, Selleck Chemicals Llc, Houston, Tex., United States of America), the DRG neurons were perfused with a normal Locke buffer vehicle or modified Locke buffer as described below. The values were normalized with KCl ([…]) to identify neuronal responses in all the calcium response data below.

[2] = system: non-histamine dependent (CQ) itch in mice; experiment: Chloroquine (CQ)-induced itch in mice; assay type: in vivo, mouse; settings: i.v. cilengitide 100 nM 10 minutes prior to CQ 100 μg/10 μl
Method: All behavioral experiments were conducted during the light cycle at ambient temperature (23° C.). Behavioral assessment of scratching behavior was conducted as described previously (Mishra et al., 2011). Briefly, mice were injected intradermal into the nape of the neck with periostin (R&D), histamine, and chloroquine (all Millipore-Sigma) as previously described (Shimada and LaMotte, 2008). Compounds were diluted in PBS and the same was used as a vehicle. […] Additionally, cilengitide and periostin were combined together (mix) and injected i.d. into the dorsal neck of mouse. Scratching behavior was recorded for 30 minutes and data was presented in bouts per 30 minutes for mice. […] For eye wipes assay, periostin and capsaicin were dropped on mouse cornea and counted wipes for 1-minute. […] For dog's study, periostin (25 μg/25 μl) was injected in the dorsal neck (s.c.) and behavior was recorded and quantified for 30 minutes as “duration of pruritus manifestation” (DPM), as described earlier (Paps et al., 2016). […] When different raters separately scored a single tape, the ratings indicated high interrater reliability (coefficient of correlation, r>0.95). This method of itch readout in NHP has been used and accepted (Ko and Naughton, 2000). The behavior was recorded for 30 minutes duration and number of scratches quantified. […]

[3] = system: BMMC mast cells; experiment: Calcium imaging on mast cells; assay type: cell-based, mouse; settings: mast cells stimulated with periostin alone
Method: Changes in cytosolic Ca^2+ were assayed using ratiometric Fura-2 AM measurements as described (Cruse et al., 2013). Fluorescence was measured at two excitation wavelengths (340 and 380 nm) and an emission wavelength of 510 nm using a BioTek Neo2 multimode plate reader (BioTek, Winooski, Vt., United States of America). The ratio of fluorescence readings was calculated following subtraction of background fluorescence of cells not loaded with Fura-2 AM.

Row | Molecule | capsaicin-induced calcium response [1] | CQ-induced itch (scratching bouts per 30 minutes) [2] | calcium release in mast cells [3]
1 | CC(C)[C@H]1C(=O)N[C@@H](CCCN=C(N)N)C(=O)NCC(=O)N[C@@H](CC(=O)O)C(=O)N[C@H](Cc2ccccc2)C(=O)N1C [cilengitide, cyclo RGDf-n(Me)V] | did not reduce | inhibits | 
2 | B1 |  |  | no periostin-dependent change in calcium release
